{
  "source": "patent US11613560B2",
  "about": "“Bicyclic peptide ligands specific for OX40” (BicycleTx Limited, priority 2019, dated 2023)",
  "target": "T1, OX40 (Homo sapiens, UniProt P43489)",
  "T1 construct": "host or cells: OX40 Jurkat cells (NF-kB luciferase reporter)",
  "T1 sequence (P43489 29-277)": "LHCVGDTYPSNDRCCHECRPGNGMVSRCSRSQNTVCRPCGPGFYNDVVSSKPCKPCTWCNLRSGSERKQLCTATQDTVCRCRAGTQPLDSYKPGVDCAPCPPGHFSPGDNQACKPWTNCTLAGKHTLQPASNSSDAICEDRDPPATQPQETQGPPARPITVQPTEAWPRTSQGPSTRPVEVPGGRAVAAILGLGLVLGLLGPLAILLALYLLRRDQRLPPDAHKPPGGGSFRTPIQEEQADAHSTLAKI",
  "test": "Promega OX40 cell-activity assay (NF-κB luciferase read-out in OX40 Jurkat cells)",
  "type": "cell-based",
  "details": "synthetic OX40 tetramer, FIG. 1",
  "description": "Promega have developed an OX40 cell-activity assay that uses NF-κB luciferase luminescence as a read-out of OX40 activation in Jurkat cells (Promega CS197704). On the day of the experiment, prepare medium by thawing FBS and adding 5% FBS to RPMI-1640. Thaw OX40 Jurkat cells in the water-bath and then add 500 μl cells to 11.5 ml pre-warmed 5 FBS RPMI-1640 medium. Add 60 μl cells/well to white cell culture plates. Proceed to dilute agonists at concentration giving the maximum fold induction and then titrate down the amount in a sterile 96 well-plate. […] Prepare enough reagent for duplicate samples and then perform ⅓ dilution series or 1/10 dilution series. Include positive control OX40L trimer (R&D systems #1054-OX-010) and negative control monomeric peptide. Add 20 μl of agonist as duplicate samples or 5% FBS RPMI-1640 alone as background control.\nCo-incubate cells together with agonists for 5 hours at 37° C., 5% CO2. After 5 hours, thaw Bio-Glo™ and develop the assay at room-temperature. Add 80 μl Bio-Glo™ per well and incubate 5-10 min. Read luciferase signal on CLARIOStar plate-reader using the MARS program and normalize the fold induction relative to background (medium alone). Analyse data by transforming the data to x=log (X), then plot log (agonist) vs. response variable slope (4 parameters) to calculate EC50 values.",
  "data": [
    {"smiles": "CC(C)C[C@@H]1NC(=O)[C@@H](NC(=O)[C@H](C)N)CSCCC(=O)N2CN3CN(C2)C(=O)CCSC[C@H](NC(=O)[C@@H]2CCCN2C(=O)[C@H](CO)NC(=O)[C@H](Cc2ccc(O)cc2)NC1=O)C(=O)N[C@@H](Cc1c[nH]c2ccccc12)C(=O)N[C@@H](Cc1c[nH]cn1)C(=O)N1CCC[C@H]1C(=O)N[C@@H](CC(C)C)C(=O)N[C@@H](CC(N)=O)C(=O)N[C@@H](CC(=O)O)C(=O)N[C@H](C(=O)N[C@@H](C)C(=O)N[C@@H](CCCCNC(=O)CCc1cn(CCOCCOCCOCCOCCOCCOCCOCCOCCOCCOCCOCCOCCOCCOCCOCCOCCOCCOCCOCCOCCOCCOCCOCCNC(=O)CCOCC(COCCC(=O)NCCOCCOCCOCCOCCOCCOCCOCCOCCOCCOCCOCCOCCOCCOCCOCCOCCOCCOCCOCCOCCOCCOCCOCCn2cc(CCC(=O)NCCCC[C@H](NC(=O)[C@H](C)NC(=O)[C@@H]4CSCCC(=O)N5CN6CN(C5)C(=O)CCSC[C@H](NC(=O)[C@@H]5CCCN5C(=O)[C@H](CO)NC(=O)[C@H](Cc5ccc(O)cc5)NC(=O)[C@H](CC(C)C)NC(=O)[C@@H](NC(=O)[C@H](C)N)CSCCC6=O)C(=O)N[C@@H](Cc5c[nH]c6ccccc56)C(=O)N[C@@H](Cc5c[nH]cn5)C(=O)N5CCC[C@H]5C(=O)N[C@@H](CC(C)C)C(=O)N[C@@H](CC(N)=O)C(=O)N[C@@H](CC(=O)O)C(=O)N4)C(N)=O)nn2)(COCCC(=O)NCCOCCOCCOCCOCCOCCOCCOCCOCCOCCOCCOCCOCCOCCOCCOCCOCCOCCOCCOCCOCCOCCOCCOCCn2cc(CCC(=O)NCCCC[C@H](NC(=O)[C@H](C)NC(=O)[C@@H]4CSCCC(=O)N5CN6CN(C5)C(=O)CCSC[C@H](NC(=O)[C@@H]5CCCN5C(=O)[C@H](CO)NC(=O)[C@H](Cc5ccc(O)cc5)NC(=O)[C@H](CC(C)C)NC(=O)[C@@H](NC(=O)[C@H](C)N)CSCCC6=O)C(=O)N[C@@H](Cc5c[nH]c6ccccc56)C(=O)N[C@@H](Cc5c[nH]cn5)C(=O)N5CCC[C@H]5C(=O)N[C@@H](CC(C)C)C(=O)N[C@@H](CC(N)=O)C(=O)N[C@@H](CC(=O)O)C(=O)N4)C(N)=O)nn2)COCCC(=O)NCCOCCOCCOCCOCCOCCOCCOCCOCCOCCOCCOCCOCCOCCOCCOCCOCCOCCOCCOCCOCCOCCOCCOCCn2cc(CCC(=O)NCCCC[C@H](NC(=O)[C@H](C)NC(=O)[C@@H]4CSCCC(=O)N5CN6CN(C5)C(=O)CCSC[C@H](NC(=O)[C@@H]5CCCN5C(=O)[C@H](CO)NC(=O)[C@H](Cc5ccc(O)cc5)NC(=O)[C@H](CC(C)C)NC(=O)[C@@H](NC(=O)[C@H](C)N)CSCCC6=O)C(=O)N[C@@H](Cc5c[nH]c6ccccc56)C(=O)N[C@@H](Cc5c[nH]cn5)C(=O)N5CCC[C@H]5C(=O)N[C@@H](CC(C)C)C(=O)N[C@@H](CC(N)=O)C(=O)N[C@@H](CC(=O)O)C(=O)N4)C(N)=O)nn2)nn1)C(N)=O)CSCCC3=O", "note": "[BCY12019]", "values": [
      {"measurement": "EC50 (range in words)", "result": "low nanomolar range"}
    ]}
  ]
}
